How the values were obtained:
[1] = pH-potentiometric equilibrium titrations of the ligand (butrol) in the presence of Ca2+ ions; format: physicochemical
Description: The thermodynamic stability constant of Calcobutrol and the acid dissociation constant have been determined by pH-potentiometric equilibrium titrations of the ligand (butrol) in the presence of Ca^2+ ions (at 25° C., in 0.1 N KCl) at different ratios of Ca^2+:ligand.
Based on these measured values, the distribution of calcium between free calcium ion, neutral complex (Calcobutrol, ligand has two negative charges), and anionic complex (ligand has three negative charges) can be calculated for different pH values. […] Due to this equilibrium between the calcium-containing species, preparative methods in aqueous solution will lead to some impurities.

[2] = Properties of the Calcobutrol product and of Gadovist solutions prepared from it; format: physicochemical; conditions: product of the process
Description: The Calcobutrol prepared in this manner is characterised by a very high quality. […] The whole process, from Gadobutrol to Calcobutrol, is characterised by a high reproducibility and workability. The total yield of 91.2% is very good. […] The sodium salt of Calcobutrol is obtained through addition of a stoichiometric amount of sodium hydroxide in situ.

In the case of O=C([O-])CN1CCN(CC(=O)[O-])CCN(C(CO)C(O)CO)CCN(CC(=O)[O-])CC1.O=C([O-])CN1CCN(CC(=O)[O-])CCN(C(CO)C(O)CO)CCN(CC(=O)[O-])CC1.[Ca+2].[Ca+2].[Ca+2] (centres unmarked) [Calcobutrol, calcium complex of 10-(2,3-Dihydroxy-1-(hydroxymethyl)propyl)-1,4,7,10-tetraazacyclodecane-1,4,7-triacetic acid], the “thermodynamic stability constant log(KCaL-)” value ([1]; 25° C., 0.1 N KCl, different ratios of Ca2+:ligand, KCaL-=[CaL-]/[Ca2+][L3-]) was 14.67±0.02, the “acid dissociation constant pKa” value ([1]; 25° C., 0.1 N KCl, Ka=[CaL-][H+]/[CaLH]) was 3.39±0.12 and the “share of neutral complex among the calcium-containing species” value ([1]; calculated from measured constants, at any pH (FIG. 1)) was at most 20%. The solubility in water [2] was “soluble in water” and the storage stability [2] was “stable for storage”.
